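A five-concentration, 48-hour dose response in 96-well plates underlies each endpoint, interpolated linearly between surrounding concentrations. GI50 marks 50% less growth. The concentration for full growth arrest is given as TGI.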
Tested on: MDA-MB-468 breast
Experiment: NCI-60 cell line screen, 48 h

Structure (SMILES): Cc1ccc(C2NC(=O)c3ccccc3N2)c(C)c1 (stereo not given)
- GI50: 6400 nM
- TGI: > 100000 nM

Structure (SMILES): Cc1cccc2c3c(sc12)C(c1ccc(F)cc1)C(C#N)=C(N)O3 (stereo not given)
- GI50: 31.5 nM
- TGI: 551 nM

Structure (SMILES): COc1ccc(CCN2CCC(CN(C)Cc3cnn(-c4ccccc4)c3)CC2)cc1
- GI50: 4990 nM
- TGI: 21300 nM

Structure (SMILES): NC1(Cc2ccc(Cl)cc2)CCN(c2ncnc3[nH]ccc23)CC1
- GI50: 1920 nM
- TGI: 12800 nM

Structure (SMILES): COc1cc(C)c2sc3ccccc3c(=O)c2c1NCCN(C)C
- GI50: 2150 nM
- TGI: 5060 nM

Structure (SMILES): COC(=O)C(C(=O)OC)C(Br)C(Br)C(Br)c1ccccc1 (stereo not given)
- GI50: 2060 nM
- TGI: 6180 nM

Structure (SMILES): CC1=C2C(=C[C@@](C)(COC(=O)c3ccc(S(=O)(=O)F)cc3)[C@@H]2O)C(=O)[C@](C)(O)C12CC2
- GI50: 530 nM
- TGI: 2170 nM

Structure (SMILES): CN1CCN(c2nc(-c3csc(-c4cccs4)n3)cc3ccccc23)CC1
- GI50: 1690 nM
- TGI: 3390 nM

Structure (SMILES): Cc1nc2ccccc2nc1N=Nc1ccccc1
- GI50: 21000 nM
- TGI: > 100000 nM

Structure (SMILES): COc1cnc2c(c1)C(=O)c1c-2n(CCCN2CCC(O)CC2)c(=O)c2cc(Cl)ccc12
- GI50: 521 nM
- TGI: 10800 nM

Structure (SMILES): Cc1nc2cc(Nc3nc(Nc4ccc(F)cc4)nc(N4CCOCC4)n3)ccc2n1Cc1ccccc1
- GI50: 1520 nM
- TGI: 4280 nM

Structure (SMILES): O=C(N/N=C/c1cccs1)c1[nH]c2ccc(Br)cc2c1-c1ccccc1
- GI50: 88.1 nM
- TGI: 4260 nM

Structure (SMILES): CN(CCC(=O)/C(=C\c1ccccc1)c1ccc(Cl)cc1)Cc1ccccc1
- GI50: 2140 nM
- TGI: 5960 nM

Structure (SMILES): CCCCCCNCc1cc(C(C)(C)C)cc(CNCCCCCC)c1O
- GI50: 1590 nM
- TGI: 3010 nM

Structure (SMILES): Cn1cc(C2=C(Nc3ccccc3)C(=O)NC2=O)c2ccccc21
- GI50: > 23000 nM
- TGI: > 25000 nM

Structure (SMILES): COc1cc2c(c(OC)c1OC)-c1ccc(N=NC(N)=S)c(=O)cc1[C@@H](NC(C)=O)CC2
- GI50: 301 nM

Structure (SMILES): COc1ccc(NC2=C(Cl)C(=O)C(C)=C(C)C2=O)cc1
- GI50: 1290 nM
- TGI: 2750 nM

Structure (SMILES): CC(=O)O[C@H]1C[C@@H]2OC3C=C(C)CCC3(C)[C@@]1(C)[C@@]21CO1 (stereo not given in full)
- GI50: 284 nM
- TGI: 1570 nM

Structure (SMILES): CC(=O)/C=C/c1ccc(OCc2ccc(Cl)cc2)cc1
- GI50: 161000 nM
- TGI: 872000 nM

Structure (SMILES): CC(C)C(=O)Nc1ccc(-c2nc(-c3cccc(O)c3)c(-c3ccnc(Br)c3)[nH]2)cc1
- GI50: 795 nM
- TGI: 2740 nM

Structure (SMILES): COCCOCCOCc1n(Cc2ccc3ccccc3n2)c2ccccc2[n+]1Cc1ccc2ccccc2n1
- GI50: 190 nM
- TGI: 2250 nM

Structure (SMILES): NC(CSSCC(N)C(=O)O)C(=O)O (stereo not given)
- GI50: > 100000 nM
- TGI: > 100000 nM

Structure (SMILES): O=C1N(Cc2ccccc2Cl)c2ccccc2C12NN=C(c1cccc(Cl)c1)S2 (stereo not given)
- GI50: 1910 nM
- TGI: 3770 nM

— PubChem BioAssay (NCI)
